This note sets out measurements from US7109370B2, “Substituted phenylketoenols” (Bayer Aktiengesellschaft, priority 1997, dated 2006).

Type in all cases: in vivo
For series [1], the system named is greenhouse red spider mite Tetranychus urticae. Kind of series: Tetranychus test (OP-resistant/dip treatment). The settings on record: after 14 days, infested bean plants dipped. As for the experimental part: Tetranychus Test (OP-Resistant/Dip Treatment)
(§1) To produce a suitable preparation of active compound, 1 part by weight of active compound is mixed with the stated amount of solvent and the stated amount of emulsifier, and the concentrate is diluted with water to the desired concentration.
Bean plants (Phaseolus vulgaris) which are heavily infested by all stages of the greenhouse red spider mite Tetranychus urticae are dipped into a preparation of active compound of the desired concentration.
After the desired period of time, the kill in % is determined. 100% means that all spider mites have been killed; 0% means that none of the spider mites have been killed.

For series [2], the system named is green rice leaf hoppers (Nephotettix cincticeps). Description: Nephotettix test (dipped rice seedlings). The following applies: active compound concentration 0.1%, after 6 days. As for the experimental part: as §1
Rice seedlings (Oryzae sativa) are treated by being dipped into the preparation of active compound of the desired concentration and are populated with green rice leaf hoppers (Nephotettix cincticeps) while the seedlings are still moist.
After the desired period of time, the kill in % is determined. 100% means that all leaf hoppers have been killed; […] means that none of the leaf hoppers have been killed.

The subject of series [3] is larvae of the mustard beetle (Phaedon cochleariae). Description: Phaedon larvae test (dipped cabbage leaves). The settings on record: active compound concentration 0.1%, after 7 days. As for the experimental part:
Phaedon Larvae Test [table] To produce a suitable preparation of active compound, 1 part by weight of active compound is mixed with the stated amount of solvent and the stated amount of emulsifier, and the concentrate is diluted with water to the desired concentration. Cabbage leaves (Brassica oleracea) are treated by being dipped into the preparation of active compound of the desired concentration and are populated with larvae of the mustard beetle (Phaedon cochleariae) while the leaves are still moist.

Series [4] relates to peach aphids (Myzus persicae). Description: Myzus test (dipped cabbage leaves). The settings on record: active compound concentration 0.1%; after 6 days; infested cabbage leaves dipped. As for the experimental part:
as §1
Cabbage leaves (Brassica oleracea) which are heavily infested by peach aphids (Myzus persicae) are treated by being dipped into the preparation of active compound of the desired concentration.
After the desired period of time, the kill in % is determined. 100% means that all aphids have been killed; 0% means that none of the aphids have been killed.

The test system of series [5] is Myzus persicae. Description: Critical concentration test/root-systemic action, Myzus persicae. The settings on record: 20 ppm active compound in soil; peppers; populated after 7 days, evaluated after a further 6 days. As for the experimental part:
Critical Concentration Test/Root-systemic Action
as §1
The preparation of active compound is intimately mixed with soil. The concentration of the active compound in the preparation is of practically no importance here, only the amount by weight of active compound per unit volume of soil, which is given in ppm (=mg/l), being decisive. The treated soil is transferred into pots and these are planted with peppers at the cotyledon stage. The active compound can in this way be taken up from the soil by the roots of the plants and be transported into the leaves.
(§2) After a further 6 days, evaluation is carried out by counting or estimating the dead animals. The root-systemic action of the active compound is deduced from the mortality figures. It is 100% if all the test animals have been killed and 0% if just as many test insects are still alive as in the case of the untreated control.

The test system of series [6] is caterpillars of the owlet moth (Spodoptera frugiperda). Kind of series: Spodoptera frugiperda test (dipped cabbage leaves). The settings on record: active compound concentration 0.1%, after 7 days. As for the experimental part: Spodoptera frugiperda Test
as §1
Cabbage leaves (Brassica oleracea) are treated by being dipped into the preparation of active compound of the desired concentration and are populated with caterpillars of the owlet moth (Spodoptera frugiperda) while the leaves are still moist.
After the desired period of time, the kill in % is determined. 100% means that all caterpillars have been killed; 0% means that none of the caterpillars have been killed.

Series [7] deals with Aphis fabae. Description: Critical concentration test/root-systemic action, Aphis fabae. The settings on record: soil, read-out: root-systemic effect (mortality). As for the experimental part:
Critical Concentration Test/Root-Systemic Action
as §1
The preparation of active compound is intimately mixed with soil. The concentration of the active compound in the preparation is of practically no importance here, only the amount by weight of active compound per unit volume of soil, which is given in ppm (=mg/l), being decisive. The treated soil is transferred into pots and these are planted with pregerminated broad beans. The active compound can in this way be taken up from the soil by the roots of the plants and be transported into the leaves.
as §2

The mark [8] stands for this setting: active compound concentration 0.1%.
The mark [9] stands for this setting: active compound concentration 0.02%.

`Cc1ccc(C2=C(O)C3(CCOC(C)C3)NC2=O)c(C)c1` (single isomer, unassigned) [I-a-4]: in series [1] (setting [8]), the “effect (kill in %)” value is listed as 100%.
`Cc1ccc(C2=C(O)C3(CCOC(C)C3)NC2=O)c(Cl)c1` (single isomer, unassigned) [I-a-7]: the “effect (kill in %)” value in series [1] (setting [8]) was found to be 100%. Besides, the kill in % in series [2] and in series [3] was 100% in each case.
Molecule `Cc1cc(Cl)cc(Cl)c1C1=C(O)C2(CCOC(C)C2)NC1=O` (single isomer, unassigned) [I-a-8] had a kill in % in series [3] of 100%.
With `Cc1cc(Cl)c(C2=C(O)C3(CCOC(C)C3)NC2=O)c(Cl)c1` (single isomer, unassigned) [I-a-9], the “effect (kill in %)” value in series [1] (setting [8]) is given as 100%. In series [4], the kill in % is given as 100%.
In series [4], `Cc1cc(C)c(C2=C(O)C3(CCOC(C)C3)NC2=O)c(C)c1C` (single isomer, unassigned) [I-a-10] had a kill in % of 100%.
The molecule `Cc1cc(C#N)cc(C)c1C1=C(O)C2(CCOC(C)C2)NC1=O` (single isomer, unassigned) [I-a-12] had a kill in % in series [4] of 100%.
Molecule `CC1CC2(CCO1)NC(=O)C(c1ccc(Br)cc1Cl)=C2O` (single isomer, unassigned) [I-a-15] yielded a kill in % in series [4] of 100%.
For `Cc1cc(Cl)cc(C)c1C1=C(O)C2(CCOC(C)C2)NC1=O` (single isomer, unassigned) [I-a-16], the “root-systemic effect (mortality)” value in series [5] is given as 100%. The same molecule gave a kill in % in series [4] of 100%.
Take `Cc1cc(Br)cc(C)c1C1=C(O)C2(CCOC(C)C2)NC1=O` (single isomer, unassigned) [I-a-18]: the kill in % in series [4] came to 100%.
Same read-out and setting: under `Cc1cc(Cl)cc(Br)c1C1=C(O)C2(CCOC(C)C2)NC1=O` (single isomer, unassigned) [I-a-19] stands 100%.
For `Cc1ccc(C)c(C2=C(O)C3(CCOC(C)C3)NC2=O)c1` (single isomer, unassigned) [I-a-20], the kill in % in series [6] and in series [4] was 100% each time.
In turn, `CCc1cc(Br)c(C2=C(O)C3(CCOC(C)C3)NC2=O)c(Br)c1` (single isomer, unassigned) [I-a-21] yielded a kill in % in series [4] of 100%.
In series [2], `CCc1ccc(C2=C(O)C3(CCOC(C)C3)NC2=O)c(Cl)c1` (single isomer, unassigned) [I-a-22] yielded a kill in % of 100%.
With `CC(=O)OC1=C(c2c(C)cc(C)cc2C)C(=O)NC12CCOC(C)C2` (single isomer, unassigned) [I-b-2], the “effect (kill in %)” value in series [1] (setting [8]) is recorded as 100%. Moreover, the kill in % in series [2] was 100%.
As for `Cc1cc(C)c(C2=C(OC(=O)C(C)C)C3(CCOC(C)C3)NC2=O)c(C)c1` (single isomer, unassigned) [I-b-3], the “effect (kill in %)” value in series [1] (setting [8]) is reported as 100%.
`Cc1ccc(C2=C(OC(=O)C(C)C)C3(CCOC(C)C3)NC2=O)c(C)c1` (single isomer, unassigned) [I-b-4]: in series [1] (setting [8]), the “effect (kill in %)” value is listed as 100%. The kill in % in series [2] and in series [3] was 100% throughout.
On to `CC(=O)OC1=C(c2c(C)cc(C)cc2C)C(=O)NC12CCOC(C)C2` (single isomer, unassigned) [I-b-5], for which the kill in % in series [2] was determined as 100%.
On the same count and under the same terms, under `CC(=O)OC1=C(c2ccc(C)cc2C)C(=O)NC12CCOC(C)C2` (single isomer, unassigned) [I-b-6] stands 100%.
For the molecule `Cc1ccc(C2=C(OC(=O)C(C)C)C3(CCOC(C)C3)NC2=O)c(C)c1` (single isomer, unassigned) [I-b-7], the “effect (kill in %)” value in series [1] (setting [8]) worked out at 100%. This molecule also showed a kill in % in series [2] of 100%.
With `Cc1ccc(C2=C(OC(=O)C(C)C)C3(CCOC(C)C3)NC2=O)c(Cl)c1` (single isomer, unassigned) [I-b-8], in series [1] (setting [8]), the “effect (kill in %)” value amounted to 100%. Besides, the kill in % in series [2] and in series [3] was 100% each time.
`Cc1cc(C)c(C2=C(OC(=O)C(C)C)C3(CCOC(C)C3)NC2=O)c(C)c1C` (single isomer, unassigned) [I-b-11] had a kill in % in series [2] of 100%.
On to `CC1CC2(CCO1)NC(=O)C(c1ccc(Br)cc1Cl)=C2OC(=O)C(C)C` (single isomer, unassigned) [I-b-15], for which the “effect (kill in %)” value in series [1] (setting [9]) turned out to be 100%.
Turning to `CC1CC2(CCO1)NC(=O)C(c1ccc(Br)cc1Cl)=C2OC(=O)CC(C)(C)C` (single isomer, unassigned) [I-b-16], the “effect (kill in %)” value in series [1] (setting [9]) worked out at 100%.
With `Cc1cc(Cl)ccc1C1=C(OC(=O)C(C)C)C2(CCOC(C)C2)NC1=O` (single isomer, unassigned) [I-b-17], the “effect (kill in %)” value in series [1] (setting [9]) stood at 100%. The kill in % in series [2] and in series [4] was 100% in each case.
`CCc1ccc(C2=C(OC(=O)C(C)C)C3(CCOC(C)C3)NC2=O)c(Cl)c1` (single isomer, unassigned) [I-b-22]: in series [1] (setting [9]), the “effect (kill in %)” value turned out to be 100%. For the same molecule, the kill in % in series [2] and in series [3] was 100% in each case.
Turning to `CCc1ccc(C2=C(OC(=O)c3cccs3)C3(CCOC(C)C3)NC2=O)c(Cl)c1` (single isomer, unassigned) [I-b-23], the kill in % in series [2] and in series [3] was 100% each time.
A word on the mortality: it is the share of the test organisms that died. For `Cc1cc(C)c(C2=C(O)C3(CCOC(C)C3)NC2=O)c(C)c1` (centres unmarked) [I-a-1], the mortality at 20 ppm in series [7] is 100%.
In the case of `Cc1cc(C)c(C2=C(OC(=O)C(C)C)C3(CCOC(C)C3)NC2=O)c(C)c1` (centres unmarked) [I-b-1], in series [7], the mortality at 20 ppm came out at 100%. The kill in % in series [2] worked out at 100%.
For `Cc1cc(Cl)cc(C)c1C1=C(OC(=O)C(C)C)C2(CCOC(C)C2)NC1=O` (centres unmarked) [I-b-25], the “root-systemic effect (mortality)” value in series [5] stood at 100%.
With `CCOC(=O)OC1=C(c2c(C)cc(C)cc2C)C(=O)NC12CCOC(C)C2` (centres unmarked) [I-c-1], the mortality at 20 ppm in series [7] was found to be 100%. Besides, in series [1] (setting [8]), the “effect (kill in %)” value is listed as 100%. The molecule also gave a kill in % in series [2] of 100%.
With `CCOC(=O)OC1=C(c2ccc(C)cc2C)C(=O)NC12CCOC(C)C2` (centres unmarked) [I-c-3], the “effect (kill in %)” value in series [1] (setting [8]) was found to be 100%. For the same molecule, the kill in % in series [2], in series [6] and in series [3] was 100% each time.
In the case of `CCOC(=O)OC1=C(c2ccc(C)cc2C)C(=O)NC12CCOC(C)C2` (centres unmarked) [I-c-4], the “effect (kill in %)” value in series [1] (setting [8]) amounted to 100%. In series [2], this molecule came in with a kill in % of 100%.
As to `CCOC(=O)OC1=C(c2c(C)cc(C)c(C)c2C)C(=O)NC12CCOC(C)C2` (centres unmarked) [I-c-5], in series [2], the kill in % is recorded as 100%.
Same read-out and setting: under `CCOC(=O)OC1=C(c2cc(C)c(C)cc2C)C(=O)NC12CCOC(C)C2` (centres unmarked) [I-c-7] stands 100%.
In series [4], `CCOC(=O)OC1=C(c2ccc(Br)cc2Cl)C(=O)NC12CCOC(C)C2` (centres unmarked) [I-c-8] yielded a kill in % of 100%.
In the case of `CCOC(=O)OC1=C(c2c(C)cc(Br)cc2C)C(=O)NC12CCOC(C)C2` (centres unmarked) [I-c-11], the kill in % in series [2] and in series [4] was 100% in each case.
`CCOC(=O)OC1=C(c2ccc(Cl)cc2Cl)C(=O)NC12CCOC(C)C2` (centres unmarked) [I-c-12]: the kill in % in series [4] is given as 100%.
`CCOC(=O)OC1=C(c2ccc(CC)cc2Cl)C(=O)NC12CCOC(C)C2` (centres unmarked) [I-c-13]: in series [1] (setting [9]), the “effect (kill in %)” value was 100%. The kill in % in series [6] and in series [3] was 100% each time.
In the case of `CCOC(=O)OC1=C(c2cc(C)ccc2C)C(=O)NC12CCOC(C)C2` (centres unmarked) [I-c-15], the kill in % in series [6] is 100%.
